Test results taken from patent publication US20150338423A1, “METHODS FOR DETERMINING RELATIVE BINDING ENERGY OF MONOMERS AND METHODS OF USING THE SAME” (SABIC Global Technologies B.V., priority 2014, published 2015).
pIC50: −log10 of the molar value. Read-outs that look alike come from different tables or passages of the source.

Target: T1, (Homo sapiens, UniProt P03372)
T1 sequence (P03372 1-595): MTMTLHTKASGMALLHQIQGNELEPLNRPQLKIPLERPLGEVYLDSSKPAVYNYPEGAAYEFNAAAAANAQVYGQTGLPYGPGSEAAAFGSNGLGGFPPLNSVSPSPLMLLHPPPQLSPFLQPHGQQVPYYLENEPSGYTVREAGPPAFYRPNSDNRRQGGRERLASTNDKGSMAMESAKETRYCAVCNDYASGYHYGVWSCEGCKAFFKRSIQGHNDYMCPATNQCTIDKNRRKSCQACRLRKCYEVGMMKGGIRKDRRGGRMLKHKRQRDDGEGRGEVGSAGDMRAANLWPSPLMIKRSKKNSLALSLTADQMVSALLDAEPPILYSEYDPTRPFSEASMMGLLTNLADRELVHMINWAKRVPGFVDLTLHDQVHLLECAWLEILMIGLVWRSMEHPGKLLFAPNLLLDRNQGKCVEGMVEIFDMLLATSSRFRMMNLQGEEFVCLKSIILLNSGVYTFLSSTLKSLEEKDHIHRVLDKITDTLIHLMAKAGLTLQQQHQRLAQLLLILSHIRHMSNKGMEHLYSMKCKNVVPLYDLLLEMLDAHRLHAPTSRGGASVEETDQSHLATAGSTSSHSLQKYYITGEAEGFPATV
Experiment: in vitro competitive binding assay (radio-ligand displacement), estradiol binding activity

[1] = Table 1, unsubstituted reference monomers, displacement of radio-ligand from ERR-α, read-out: IC50

Procedure: The (IC50) of a particular substance can be determined using conventional competition binding assays. In this type of assay, a single concentration of radioligand (such as an agonist) is used in every assay tube. The ligand is used at a low concentration, usually at or below its Kd value. The level of specific binding of the radioligand is then determined in the presence of a range of concentrations of other competing non-radioactive compounds (usually antagonists), in order to measure the potency with which they compete for the binding of the radioligand. Competition curves can also be computer-fitted to a logistic function as described under direct fit.
IC50 binding concentrations for the alpha in vitro estradiol receptors were tested. Four separate sets of tests were run using a standard competitive binding assay. Samples were dissolved in either ethanol or DMSO. The various compounds were then tested at up to seven different concentrations for each test compound. Each of those tests was run in triplicate. Tests were conducted by displacement of a radio-ligand. For each set of tests a 17P-estradiol control sample was run to ensure proper binding of the natural hormone under the test conditions. Specifically, the IC50 values described herein were determined from in-vitro experiments of the compound binding to ERR-α.

## COc1cc(C(C)(C)c2ccc(O)c(OC)c2)ccc1O [Example 1A, 4,4′-(propane-2,2-diyl)bis(2-methoxyphenol)]
Table 2, substituted monomers, displacement of radio-ligand from ERR-α, read-out: IC50
  pIC50: < 3.60
With the LBD cavity of ERR-α, in words
  estradiol binding activity: reduced or no detectable estradiol binding activity

## Cc1cc(C2(c3ccc(O)c(C)c3)CCCCC2)ccc1O [Reference ID 2, 4,4′-(cyclohexane-1,1-diyl)bis(2-methylphenol)]
[1]
  pIC50: 5.89

## CC(C)(c1ccc(O)cc1)c1ccc(C(C)(C)c2ccc(O)cc2)cc1 [Reference ID 7, 4,4′-(1,4-phenylenebis(propane-2,2-diyl))diphenol]
  pIC50: 5.41

## CCC(CC)(c1ccc(O)cc1)c1ccc(O)cc1 [Reference ID 9, 4,4′-(pentane-3,3-diyl)diphenol]
[1]
  pIC50: 8.25

## COC(=O)CCC(C)(c1ccc(O)cc1)c1ccc(O)cc1 [Reference ID 10, Methyl 4,4-bis(4-hydroxyphenyl)pentanoate]
[1]
  pIC50: 4.73
